Data reported in US20250171437A1 (Agios Pharmaceuticals,Inc., priority 2022, published 2025).

Molecular target: T1, human PAH with the R408W mutation (A375 R408W cells) (Homo sapiens, UniProt P00439, R408W)
T1 construct: expressed in transfected cells
T1 sequence (P00439 1-452 R408W): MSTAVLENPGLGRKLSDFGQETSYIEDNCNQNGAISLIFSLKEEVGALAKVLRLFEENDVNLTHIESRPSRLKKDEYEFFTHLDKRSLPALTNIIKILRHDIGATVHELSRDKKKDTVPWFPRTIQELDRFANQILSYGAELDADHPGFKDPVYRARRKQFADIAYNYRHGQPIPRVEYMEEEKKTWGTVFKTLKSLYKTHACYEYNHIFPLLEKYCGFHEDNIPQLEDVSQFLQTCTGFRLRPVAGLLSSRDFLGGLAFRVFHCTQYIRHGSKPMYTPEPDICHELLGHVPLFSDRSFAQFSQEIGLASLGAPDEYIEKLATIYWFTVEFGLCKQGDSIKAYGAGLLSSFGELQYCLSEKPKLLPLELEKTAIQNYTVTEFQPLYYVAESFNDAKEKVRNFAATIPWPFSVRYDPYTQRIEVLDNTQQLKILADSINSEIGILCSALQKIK
Test: Cell Based Phenylalanine Flux Assay
Settings: 24 hrs with compound, then 20 μM sepiapterin and 800 μM 13C9,15N-Phenylalanine for 4 hours, 13C-Tyrosine by LC-MS, average where tested multiple times
Procedure, shortened: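 Phenylalanine-to-tyrosine flux is measured in A375 cells carrying stable human R408W PAH. After 24 h compound exposure, 13C9,15N-Phe (800 μM) with sepiapterin (20 μM) is supplied for 4 h and media 13C-Tyr is read by LC-MS; AC50s are binned.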

[1] = A375 cells expressing R408W PAH

Row | Structure (SMILES) | AC50 (A375 R408W cells) [nM] | AC50 [1] [nM]
1 | CC(C)n1ncnc1C(=O)N1CCc2[nH]cnc2[C@H]1c1nc2cccc(F)c2o1 [Example 707, (S)-(4-(7-fluorobenzo[d]oxazol-2-yl)-6,7-dihydro-1H-imidazo[4,5-c]pyridin-5(4H)-yl)(1-isopropyl-1H-1,2,4-triazol-5-yl)methanone] | ≤ 500 | –
2 | Cc1ccc2c(C(=O)N3CCc4[nH]cnc4[C@H]3c3nc4cc(F)ccc4o3)cnn2c1 [Example 19, (S)-(4-(5-fluorobenzo[d]oxazol-2-yl)-6,7-dihydro-1H-imidazo[4,5-c]pyridin-5(4H)-yl)(6-methylpyrazolo[1,5-a]pyridin-3-yl)methanone] | 1000 to 5000 | –
3 | CN1CCN(c2ccc3c(C(=O)N4CCc5[nH]cnc5[C@@H]4c4nc5cc(F)ccc5o4)cnn3c2)CC1 [Example 66, (R)-(4-(5-fluorobenzo[d]oxazol-2-yl)-6,7-dihydro-1H-imidazo[4,5-c]pyridin-5(4H)-yl)(6-(4-methylpiperazin-1-yl)pyrazolo[1,5-a]pyridin-3-yl)methanone] | ≥ 5000 | –
4 | O=C(c1cnn2cc(-c3ccccn3)ccc12)N1CCc2[nH]cnc2[C@@H]1c1nc2cc(F)ccc2o1 [Example 82, (R)-(4-(5-fluorobenzo[d]oxazol-2-yl)-6,7-dihydro-1H-imidazo[4,5-c]pyridin-5(4H)-yl)(6-(pyridin-2-yl)pyrazolo[1,5-a]pyridin-3-yl)methanone] | ≥ 5000 | –
5 | O=C(c1ocnc1C(F)(F)F)N1CCc2[nH]cnc2[C@H]1c1nc2ccc(Br)cc2o1 [Example 143, (S)-(4-(6-bromobenzo[d]oxazol-2-yl)-6,7-dihydro-1H-imidazo[4,5-c]pyridin-5(4H)-yl)(4-(trifluoromethyl)oxazol-5-yl)methanone] | ≤ 500 | –
6 | O=C(N1CCc2[nH]cnc2[C@H]1c1nc2cc(F)ccc2o1)C1(c2cnco2)CC1 [Example 917, (S)-(4-(5-fluorobenzo[d]oxazol-2-yl)-6,7-dihydro-1H-imidazo[4,5-c]pyridin-5(4H)-yl)(1-(oxazol-5-yl)cyclopropyl)methanone] | 1000 to 5000 | –
7 | O=C(c1oc(-c2ccccn2)nc1C(F)(F)F)N1CCc2[nH]cnc2[C@@H]1c1nc2cccc(F)c2o1 [Example 637, (R)-(4-(7-fluorobenzo[d]oxazol-2-yl)-6,7-dihydro-1H-imidazo[4,5-c]pyridin-5(4H)-yl)(2-(pyridin-2-yl)-4-(trifluoromethyl)oxazol-5-yl)methanone] | ≤ 500 | –
8 | Cn1cc(-c2ccc3c(C(=O)N4CCc5[nH]cnc5[C@H]4c4nc5cccc(F)c5o4)cnn3c2)cn1 [Example 383, (S)-(4-(7-fluorobenzo[d]oxazol-2-yl)-6,7-dihydro-1H-imidazo[4,5-c]pyridin-5(4H)-yl)(6-(1-methyl-1H-pyrazol-4-yl)pyrazolo[1,5-a]pyridin-3-yl)methanone] | ≤ 500 | –
9 | Cc1ccc2c(C(=O)N3CCc4[nH]cnc4[C@H]3c3nc4c(F)cccc4o3)cnn2c1 [Example 537, (S)-(4-(4-fluorobenzo[d]oxazol-2-yl)-6,7-dihydro-1H-imidazo[4,5-c]pyridin-5(4H)-yl)(6-methylpyrazolo[1,5-a]pyridin-3-yl)methanone] | ≤ 500 | –
10 | Cc1ccc2nc([C@@H]3c4nc[nH]c4CCN3C(=O)c3ocnc3C(F)F)oc2c1 [Example 884, (S)-(4-(difluoromethyl)oxazol-5-yl)(4-(6-methylbenzo[d]oxazol-2-yl)-6,7-dihydro-1H-imidazo[4,5-c]pyridin-5(4H)-yl)methanone] | ≤ 500 | –
11 | O=C(c1oc(-c2ncccn2)nc1C(F)F)N1CCc2[nH]cnc2[C@@H]1c1nc2cc(F)ccc2o1 [Example 662, (R)-(4-(difluoromethyl)-2-(pyrimidin-2-yl)oxazol-5-yl)(4-(5-fluorobenzo[d]oxazol-2-yl)-6,7-dihydro-1H-imidazo[4,5-c]pyridin-5(4H)-yl)methanone] | 1000 to 5000 | –
12 | C[C@@H](O)c1nc(C(F)F)c(C(=O)N2CCc3[nH]cnc3[C@@H]2c2nc3cccc(F)c3o2)o1 [Example 246, (4-(difluoromethyl)-2-((R)-1-hydroxyethyl)oxazol-5-yl)((R)-4-(7-fluorobenzo[d]oxazol-2-yl)-6,7-dihydro-1H-imidazo[4,5-c]pyridin-5(4H)-yl)methanone] | ≤ 500 | –
13 | CC(C)(O)c1nc(Br)c(C(=O)N2CCc3[nH]cnc3[C@H]2c2nc3ccc(F)cc3o2)o1 [Example 249, (S)-(4-bromo-2-(2-hydroxypropan-2-yl)oxazol-5-yl)(4-(6-fluorobenzo[d]oxazol-2-yl)-6,7-dihydro-1H-imidazo[4,5-c]pyridin-5(4H)-yl)methanone] | 500 to 1000 | –
14 | Cc1ccc2nc(C3c4nc[nH]c4CCN3C(=O)c3ocnc3C#N)oc2c1 (stereo not drawn) | – | 1000 to 5000
15 | CC(C)(C)c1nc(C(F)F)c(C(=O)N2CCc3[nH]cnc3[C@H]2c2nc3cc(F)ccc3o2)o1 [Example 753, (S)-(2-(tert-butyl)-4-(difluoromethyl)oxazol-5-yl)(4-(5-fluorobenzo[d]oxazol-2-yl)-6,7-dihydro-1H-imidazo[4,5-c]pyridin-5(4H)-yl)methanone] | ≤ 500 | –
16 | O=C(c1ocnc1C(F)F)N1CCc2[nH]cnc2[C@H]1c1nc2cccc(C(F)(F)F)c2o1 [Example 493, (S)-(4-(difluoromethyl)oxazol-5-yl)(4-(7-(trifluoromethyl)benzo[d]oxazol-2-yl)-6,7-dihydro-1H-imidazo[4,5-c]pyridin-5(4H)-yl)methanone] | ≤ 500 | –
17 | O=C(C1CN(c2ccccn2)C1)N1CCc2[nH]cnc2C1c1nc2cc(F)ccc2o1 (stereo not drawn) | – | 1000 to 5000
18 | Cc1ccc2nc([C@H]3c4nc[nH]c4CCN3C(=O)c3oc(C(C)(C)O)nc3Br)oc2c1 [Example 440, (R)-(4-bromo-2-(2-hydroxypropan-2-yl)oxazol-5-yl)(4-(6-methylbenzo[d]oxazol-2-yl)-6,7-dihydro-1H-imidazo[4,5-c]pyridin-5(4H)-yl)methanone] | 1000 to 5000 | –
19 | COc1ccc(-c2nnc(C(=O)N3CCc4[nH]cnc4[C@H]3c3nc4cc(F)ccc4o3)o2)nc1 [Example 442, (S)-(4-(5-fluorobenzo[d]oxazol-2-yl)-6,7-dihydro-1H-imidazo[4,5-c]pyridin-5(4H)-yl)(5-(5-methoxypyridin-2-yl)-1,3,4-oxadiazol-2-yl)methanone] | 500 to 1000 | –
20 | COc1ccc2oc(C3c4nc[nH]c4CCN3C(=O)c3cnn4cc(N5CCC(O)CC5)ccc34)nc2c1 (stereo not drawn) | – | ≥ 5000
21 | COc1cccc2oc([C@@H]3c4nc[nH]c4CCN3C(=O)c3cnco3)nc12 [Example 621, (S)-(4-(4-methoxybenzo[d]oxazol-2-yl)-6,7-dihydro-1H-imidazo[4,5-c]pyridin-5(4H)-yl)(oxazol-5-yl)methanone] | 500 to 1000 | –
22 | Cc1ncoc1C(=O)N1CCc2[nH]cnc2[C@H]1c1nc2cccc(F)c2o1 [Example 569, (S)-(4-(7-fluorobenzo[d]oxazol-2-yl)-6,7-dihydro-1H-imidazo[4,5-c]pyridin-5(4H)-yl)(4-methyloxazol-5-yl)methanone] | ≤ 500 | –
23 | c1ccc2oc([C@@H]3c4nc[nH]c4CN3c3nc4ccccc4o3)nc2c1 (single isomer, unassigned) [Example 931] | 1000 to 5000 | –
24 | O=C(CC1CC1)N1CCc2[nH]cnc2[C@@H]1c1nc2ccc(Br)cc2o1 [Example 4, (R)-1-(4-(6-bromobenzo[d]oxazol-2-yl)-6,7-dihydro-1H-imidazo[4,5-c]pyridin-5(4H)-yl)-2-cyclopropylethanone] | ≥ 5000 | –
25 | CC(C)(O)c1nc(C(F)F)c(C(=O)N2CCc3[nH]cnc3[C@H]2c2nc3cccc(F)c3o2)o1 [Example 193, (S)-(4-(difluoromethyl)-2-(2-hydroxypropan-2-yl)oxazol-5-yl)(4-(7-fluorobenzo[d]oxazol-2-yl)-6,7-dihydro-1H-imidazo[4,5-c]pyridin-5(4H)-yl)methanone] | ≤ 500 | –
26 | Cn1nc(C(C)(C)C)cc1C(=O)N1CCc2[nH]cnc2C1c1nc2cccc(F)c2o1 (stereo not drawn) | – | 1000 to 5000
27 | Cn1nc(C(F)(F)F)nc1C(=O)N1CCc2[nH]cnc2[C@H]1c1nc2cccc(F)c2o1 [Example 279, (S)-(4-(7-fluorobenzo[d]oxazol-2-yl)-6,7-dihydro-1H-imidazo[4,5-c]pyridin-5(4H)-yl)(1-methyl-3-(trifluoromethyl)-1H-1,2,4-triazol-5-yl)methanone] | 500 to 1000 | –
28 | O=C(c1nnc(-c2ccccn2)o1)N1CCc2[nH]cnc2[C@@H]1c1nc2c(F)c(F)ccc2o1 [Example 630, (R)-(4-(4,5-difluorobenzo[d]oxazol-2-yl)-6,7-dihydro-1H-imidazo[4,5-c]pyridin-5(4H)-yl)(5-(pyridin-2-yl)-1,3,4-oxadiazol-2-yl)methanone] | 1000 to 5000 | –
29 | COc1cccc2nc([C@@H]3c4nc[nH]c4CCN3C(=O)c3nc(C)nn3C)oc12 [Example 909, (S)-(1,3-dimethyl-1H-1,2,4-triazol-5-yl)(4-(7-methoxybenzo[d]oxazol-2-yl)-6,7-dihydro-1H-imidazo[4,5-c]pyridin-5(4H)-yl)methanone] | 1000 to 5000 | –
30 | Cn1ccc(-c2nc(C(F)F)c(C(=O)N3CCc4[nH]cnc4[C@H]3c3nc4cc(F)ccc4o3)o2)n1 [Example 411, (S)-(4-(difluoromethyl)-2-(1-methyl-1H-pyrazol-3-yl)oxazol-5-yl)(4-(5-fluorobenzo[d]oxazol-2-yl)-6,7-dihydro-1H-imidazo[4,5-c]pyridin-5(4H)-yl)methanone] | ≤ 500 | –
